Measured values from ChEMBL document CHEMBL5678818, “Discovery of potent SOS1 inhibitors that block RAS activation via disruption of the RAS-SOS1 interaction” (Proc Natl Acad Sci U S A, 2019).

How the values were obtained:
[1] = target: T1, Serine/threonine-protein kinase ULK2 (Homo sapiens) (UniProt Q8IYT8); test: Inhibition of ULK2 (unknown origin) assessed as residual activity at 100 nM by KINOMEscan analysis relative to control
T1 sequence (whole entry): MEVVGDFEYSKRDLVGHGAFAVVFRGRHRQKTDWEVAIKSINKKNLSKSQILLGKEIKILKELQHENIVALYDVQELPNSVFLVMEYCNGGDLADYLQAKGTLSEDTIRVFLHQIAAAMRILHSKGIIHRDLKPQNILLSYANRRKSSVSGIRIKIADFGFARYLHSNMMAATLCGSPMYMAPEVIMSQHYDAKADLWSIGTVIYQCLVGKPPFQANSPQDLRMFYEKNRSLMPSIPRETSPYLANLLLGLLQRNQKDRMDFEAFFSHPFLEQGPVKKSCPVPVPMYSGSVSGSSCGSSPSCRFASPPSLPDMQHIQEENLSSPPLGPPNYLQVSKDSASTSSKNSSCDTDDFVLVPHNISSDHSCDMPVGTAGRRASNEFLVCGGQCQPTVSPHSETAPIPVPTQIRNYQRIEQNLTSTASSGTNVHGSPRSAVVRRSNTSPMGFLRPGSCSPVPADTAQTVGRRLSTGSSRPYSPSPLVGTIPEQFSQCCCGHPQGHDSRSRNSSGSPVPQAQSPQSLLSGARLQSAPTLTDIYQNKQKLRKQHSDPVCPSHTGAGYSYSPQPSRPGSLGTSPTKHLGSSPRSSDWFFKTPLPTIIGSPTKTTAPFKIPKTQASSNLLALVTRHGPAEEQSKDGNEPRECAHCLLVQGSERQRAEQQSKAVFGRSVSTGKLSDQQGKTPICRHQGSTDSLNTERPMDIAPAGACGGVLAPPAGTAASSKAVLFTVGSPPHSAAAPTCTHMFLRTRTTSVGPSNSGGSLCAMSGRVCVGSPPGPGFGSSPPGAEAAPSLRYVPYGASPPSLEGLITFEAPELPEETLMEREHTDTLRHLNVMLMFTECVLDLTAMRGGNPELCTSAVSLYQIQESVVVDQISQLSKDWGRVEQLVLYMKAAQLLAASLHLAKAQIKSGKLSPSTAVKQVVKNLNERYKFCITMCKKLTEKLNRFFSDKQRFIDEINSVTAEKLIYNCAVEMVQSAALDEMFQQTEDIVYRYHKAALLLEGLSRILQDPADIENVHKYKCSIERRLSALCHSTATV

[2] = target: T2, Serine/threonine-protein kinase 17B (Homo sapiens) (UniProt O94768); test: Inhibition of DRAK2 (unknown origin) assessed as residual activity at 100 nM by KINOMEscan analysis relative to control
T2 sequence (whole entry): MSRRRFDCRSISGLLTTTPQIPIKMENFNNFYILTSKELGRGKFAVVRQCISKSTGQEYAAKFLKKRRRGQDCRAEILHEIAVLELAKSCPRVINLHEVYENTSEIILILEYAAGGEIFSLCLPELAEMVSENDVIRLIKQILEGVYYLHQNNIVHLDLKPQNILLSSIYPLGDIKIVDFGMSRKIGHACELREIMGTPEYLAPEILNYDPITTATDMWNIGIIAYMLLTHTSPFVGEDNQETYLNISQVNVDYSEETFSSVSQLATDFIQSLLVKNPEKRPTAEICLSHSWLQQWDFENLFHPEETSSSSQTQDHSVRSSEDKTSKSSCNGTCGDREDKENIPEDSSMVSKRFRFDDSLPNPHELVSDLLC

[3] = target: RAC-gamma serine/threonine-protein kinase (Homo sapiens) (UniProt Q9Y243); test: Inhibition of AKT3 (unknown origin) assessed as residual activity at 100 nM by KINOMEscan analysis relative to control
Sequence of RAC-gamma serine/threonine-protein kinase (Homo sapiens) (Q9Y243 whole entry): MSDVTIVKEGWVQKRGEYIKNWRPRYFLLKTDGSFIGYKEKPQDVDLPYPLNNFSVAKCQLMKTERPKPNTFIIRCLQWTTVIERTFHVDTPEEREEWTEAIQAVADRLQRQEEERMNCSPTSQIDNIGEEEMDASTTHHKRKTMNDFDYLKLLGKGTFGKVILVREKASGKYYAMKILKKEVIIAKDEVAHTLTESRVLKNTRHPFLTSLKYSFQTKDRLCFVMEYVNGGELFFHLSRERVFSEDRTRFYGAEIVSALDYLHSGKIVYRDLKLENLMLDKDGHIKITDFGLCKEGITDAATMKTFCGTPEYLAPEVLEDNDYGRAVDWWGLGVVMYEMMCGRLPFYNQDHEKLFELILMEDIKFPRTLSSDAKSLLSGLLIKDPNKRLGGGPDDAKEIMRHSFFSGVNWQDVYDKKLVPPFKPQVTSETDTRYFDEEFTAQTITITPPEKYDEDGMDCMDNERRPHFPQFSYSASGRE

[4] = target: Death-associated protein kinase 3 (Homo sapiens) (UniProt O43293); test: Inhibition of DAPK3 (unknown origin) assessed as residual activity at 100 nM by KINOMEscan analysis relative to control
Sequence of Death-associated protein kinase 3 (Homo sapiens) (O43293 whole entry, looked up): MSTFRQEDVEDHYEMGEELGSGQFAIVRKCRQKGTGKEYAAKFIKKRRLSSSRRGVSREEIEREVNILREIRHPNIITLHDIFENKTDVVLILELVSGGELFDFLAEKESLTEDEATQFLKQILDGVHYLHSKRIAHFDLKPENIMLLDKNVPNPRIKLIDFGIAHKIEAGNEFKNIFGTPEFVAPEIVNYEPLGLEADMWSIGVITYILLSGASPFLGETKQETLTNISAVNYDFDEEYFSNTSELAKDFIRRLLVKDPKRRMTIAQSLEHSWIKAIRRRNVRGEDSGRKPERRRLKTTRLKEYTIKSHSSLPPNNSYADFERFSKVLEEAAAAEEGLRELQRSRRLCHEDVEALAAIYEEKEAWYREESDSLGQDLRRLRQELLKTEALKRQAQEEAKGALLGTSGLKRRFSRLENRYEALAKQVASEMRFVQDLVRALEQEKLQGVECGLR

[5] = system: Mast/stem cell growth factor receptor Kit (Homo sapiens), P10721 [A829P]; test: Inhibition of KIT A829P mutant (unknown origin) assessed as residual activity at 100 nM by KINOMEscan analysis relative to control
Sequence of Mast/stem cell growth factor receptor Kit (Homo sapiens), P10721 [A829P] (P10721 whole entry A829P): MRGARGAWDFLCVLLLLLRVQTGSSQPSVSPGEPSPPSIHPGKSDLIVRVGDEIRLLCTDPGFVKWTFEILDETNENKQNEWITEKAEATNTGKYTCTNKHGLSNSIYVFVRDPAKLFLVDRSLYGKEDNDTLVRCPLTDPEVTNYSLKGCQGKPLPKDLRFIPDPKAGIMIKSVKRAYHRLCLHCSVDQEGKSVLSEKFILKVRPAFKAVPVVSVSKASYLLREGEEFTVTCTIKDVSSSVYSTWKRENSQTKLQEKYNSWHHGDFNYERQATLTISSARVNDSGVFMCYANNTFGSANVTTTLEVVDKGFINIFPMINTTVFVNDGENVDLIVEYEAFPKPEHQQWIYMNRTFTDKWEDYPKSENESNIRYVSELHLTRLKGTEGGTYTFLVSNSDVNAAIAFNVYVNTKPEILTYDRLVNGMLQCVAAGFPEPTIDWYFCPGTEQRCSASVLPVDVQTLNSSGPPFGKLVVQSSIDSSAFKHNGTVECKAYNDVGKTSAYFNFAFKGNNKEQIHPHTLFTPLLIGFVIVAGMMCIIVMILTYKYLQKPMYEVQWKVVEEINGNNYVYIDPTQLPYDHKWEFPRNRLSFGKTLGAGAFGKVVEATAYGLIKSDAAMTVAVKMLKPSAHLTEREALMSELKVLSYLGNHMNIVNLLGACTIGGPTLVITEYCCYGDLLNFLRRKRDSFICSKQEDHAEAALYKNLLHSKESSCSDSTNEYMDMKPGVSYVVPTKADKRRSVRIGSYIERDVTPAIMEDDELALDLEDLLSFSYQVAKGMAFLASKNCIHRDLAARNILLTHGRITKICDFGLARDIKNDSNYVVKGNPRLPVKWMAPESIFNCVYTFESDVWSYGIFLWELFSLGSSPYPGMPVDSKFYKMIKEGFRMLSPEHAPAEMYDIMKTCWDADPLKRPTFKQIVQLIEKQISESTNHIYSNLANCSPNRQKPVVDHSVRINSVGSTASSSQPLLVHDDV

[6] = target: Interleukin-1 receptor-associated kinase 1 (Homo sapiens) (UniProt P51617); test: Inhibition of IRAK1 (unknown origin) assessed as residual activity at 100 nM by KINOMEscan analysis relative to control
Sequence of Interleukin-1 receptor-associated kinase 1 (Homo sapiens) (P51617 whole entry, looked up): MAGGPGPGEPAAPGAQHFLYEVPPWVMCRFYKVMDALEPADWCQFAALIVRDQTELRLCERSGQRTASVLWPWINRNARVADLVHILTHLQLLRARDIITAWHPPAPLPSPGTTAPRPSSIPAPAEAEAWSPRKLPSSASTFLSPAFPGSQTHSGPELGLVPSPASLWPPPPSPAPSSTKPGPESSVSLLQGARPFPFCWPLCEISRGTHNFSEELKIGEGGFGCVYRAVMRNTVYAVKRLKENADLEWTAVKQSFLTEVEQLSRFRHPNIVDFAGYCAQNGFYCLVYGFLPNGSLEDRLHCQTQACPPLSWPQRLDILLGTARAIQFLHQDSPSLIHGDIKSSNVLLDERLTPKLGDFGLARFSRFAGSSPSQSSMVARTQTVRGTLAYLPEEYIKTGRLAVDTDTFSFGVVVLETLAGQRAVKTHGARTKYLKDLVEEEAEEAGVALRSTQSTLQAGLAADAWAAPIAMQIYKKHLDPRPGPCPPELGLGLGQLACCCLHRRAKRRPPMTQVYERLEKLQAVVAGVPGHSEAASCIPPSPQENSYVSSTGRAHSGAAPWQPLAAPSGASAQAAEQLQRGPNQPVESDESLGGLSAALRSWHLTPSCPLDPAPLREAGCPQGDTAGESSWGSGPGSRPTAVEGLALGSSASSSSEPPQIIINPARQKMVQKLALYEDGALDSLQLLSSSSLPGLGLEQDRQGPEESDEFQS

[7] = target: T3, MAP/microtubule affinity-regulating kinase 4 (Homo sapiens) (UniProt Q96L34); test: Inhibition of MARK4 (unknown origin) assessed as residual activity at 100 nM by KINOMEscan analysis relative to control
T3 sequence (whole entry): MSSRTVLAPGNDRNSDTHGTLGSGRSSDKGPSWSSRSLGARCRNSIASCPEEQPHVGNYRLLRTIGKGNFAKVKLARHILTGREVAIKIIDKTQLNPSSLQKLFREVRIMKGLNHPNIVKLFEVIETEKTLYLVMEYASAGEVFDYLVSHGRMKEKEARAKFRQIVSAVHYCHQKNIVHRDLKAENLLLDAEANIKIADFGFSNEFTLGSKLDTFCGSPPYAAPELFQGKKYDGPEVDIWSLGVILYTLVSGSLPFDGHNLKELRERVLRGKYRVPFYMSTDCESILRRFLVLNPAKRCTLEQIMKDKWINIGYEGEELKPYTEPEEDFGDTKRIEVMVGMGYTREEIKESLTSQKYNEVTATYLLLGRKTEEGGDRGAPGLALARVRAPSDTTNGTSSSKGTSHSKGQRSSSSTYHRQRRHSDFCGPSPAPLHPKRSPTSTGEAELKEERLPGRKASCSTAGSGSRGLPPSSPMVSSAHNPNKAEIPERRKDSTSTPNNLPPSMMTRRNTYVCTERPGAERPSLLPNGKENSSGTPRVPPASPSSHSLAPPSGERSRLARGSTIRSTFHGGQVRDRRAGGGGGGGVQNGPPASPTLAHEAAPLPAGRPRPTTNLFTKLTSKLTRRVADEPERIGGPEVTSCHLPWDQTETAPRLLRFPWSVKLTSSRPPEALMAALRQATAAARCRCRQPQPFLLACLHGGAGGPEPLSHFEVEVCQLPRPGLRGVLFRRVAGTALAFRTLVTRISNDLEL

## COc1cc2ncnc(N[C@H](C)c3cccc4ccccc34)c2cc1OC
[1]
  Activity: 100%
[2]
  Activity: 100%
[3]
  Activity: 94%
[4]
  Activity: 100%
[5]
  Activity: 96%
[6]
  Activity: 94%
[7]
  Activity: 97%
